Reference: US6407248B1, “α-unsaturated amines, their production and use” (Takeda Chemical Industries, Ltd., priority 1987, dated 2002)

Each compound was assayed on Brown Planthoppers (Nilaparvata lugens) (assay: Effect against brown planthoppers (foliar spray on rice seedlings)). Conditions: Nilaparvata lugens, foliar, 168 h, read-out: % Mortality after 7 days.
Format: in vivo
Experimental: Effect Against Brown Planthoppers (Nilaparvata lugens)
An emulsifiable concentrate of the compound of the invention, prepared in the same manner as Example 112 below, was diluted with water to a concentration of 500 ppm and sprayed over the stems and leaves of rice seedlings in the 2-leaf stage at the rate of 10 ml per paper pot. Water was put in test tubes and the treated rice seedlings were placed therein. Then, 10 brown planthopper larvae were released in each tube, which was then capped with an aluminum cap. The test tubes were maintained in an incubator at 25° C. and the dead insects were counted 7 days after release. The % mortality was calculated using the following formula. [formula]
With `NNC(=C[N+](=O)[O-])NCc1cccnc1` [Compound 18, 1-Hydrazino-1-(3-pyridylmethyl)amino-2-nitroethylene] the mortality at 500 µg/mL was 100%.
Work on `CN(C)C(=C[N+](=O)[O-])NCc1ccc(Br)nc1` [Compound 127, 1-N-(6-Bromo-3-pyridylmethyl)amino-1-dimethylamino-2-nitroethylene] yielded a mortality at 500 µg/mL of 100%.
`CN(C)C(=C[N+](=O)[O-])NCc1cccnc1` [Compound 19, 1-Dimethylamino-1-(3-pyridylmethyl)amino-2-nitroethylene] showed a mortality at 500 µg/mL of 100%.
Work on `CCCN(Cc1ccc(Cl)nc1)C(N)=C[N+](=O)[O-]` [Compound 75, 1-Amino-1-[N-(6-chloro-3-pyridylmethyl)-N-n-propyl]-amino-2-nitroethylene] yielded a mortality at 500 µg/mL of 100%.
`CCN(Cc1ccc(Br)nc1)C(=C[N+](=O)[O-])N(C)C=O` [Compound 126, 1-[N-(6-Bromo-3-pyridylmethyl)-N-ethyl]amino-1-(N-formyl-N-methyl)amino-2-nitroethylene] showed a mortality at 500 µg/mL of 100%.
Work on `CCN(Cc1cnc(Cl)s1)C(=C[N+](=O)[O-])NC` [Compound 103, 1-[N-(2-Chloro-5-thiazolylmethyl)-N-ethyl]amino-1-methylamino-2-nitroethylene] yielded a mortality at 500 µg/mL of 100%.
`O=[N+]([O-])C=C(NCc1cnc(Cl)s1)NCc1cnc(Cl)s1` [Compound 105, 1,1-bis(2-chloro-5-thiazolylmethyl)amino-2-nitroethylene] was tested, and the mortality at 500 µg/mL was 100%.
In the case of `CN(C)C(=C[N+](=O)[O-])NCc1ccc(Cl)nc1` [Compound 46, 1-(6-Chloro-3-pyridylmethyl)amino-1-dimethylamino-2-nitroethylene], the mortality at 500 µg/mL is reported as 100%.
`CN(C=O)C(=C[N+](=O)[O-])N(C)Cc1ccc(Cl)nc1` [Compound 110, 1-[N-(6-Chloro-3-pyridylmethyl)-N-methyl]amino-1-(N-formyl-N-methyl)amino-2-nitroethylene] gave a mortality at 500 µg/mL of 100%.
For `CNC(=C[N+](=O)[O-])NCc1ccc(Cl)nc1` [Compound 28, 1-(6-Chloro-3-pyridylmethyl)amino-1-methylamino-2-nitroethylene], the mortality at 500 µg/mL was 100%.
For `CCNC(=C[N+](=O)[O-])N(C)Cc1ccc(Cl)nc1` [Compound 80, 1-[N-(6-Chloro-3-pyridylmethyl)-N-methyl]amino-1-ethylamino-2-nitroethylene], the mortality at 500 µg/mL was 100%.
Work on `CCN(Cc1ccc(Cl)nc1)C(=C[N+](=O)[O-])N(C)C=O` [Compound 111, 1-[N-(6-Chloro-3-pyridylmethyl)-N-ethyl]amino-1-(N-formyl-N-methyl)amino-2-nitroethylene] yielded a mortality at 500 µg/mL of 100%.
In the case of `CCOC(=O)C(=C(NC)NCc1ccc(Cl)nc1)[N+](=O)[O-]` [Compound 116, 1-(6-Chloro-3-pyridylmethyl)amino-1-methylamino-2-ethoxycarbonyl-2-nitroethylene], the mortality at 500 µg/mL is reported as 100%.
Work on `CCN(Cc1cnc(Cl)s1)C(=C[N+](=O)[O-])N(C)C=O` [Compound 122, 1-[N-(2-Chloro-5-thiazolylmethyl)-N-ethyl) amino-1-(N-formyl-N-methyl)amino-2-nitroethylene] yielded a mortality at 500 µg/mL of 100%.
`CN(C)C(=C[N+](=O)[O-])N(C)Cc1ccc(Cl)nc1` [Compound 58, 1-[N-(6-Chloro-3-pyridylmethyl)-N-methyl]amino-1-dimethylamino-2-nitroethylene] was tested, and the mortality at 500 µg/mL was 100%.
Work on `CCNC(=C[N+](=O)[O-])NCc1cccnc1` [Compound 4, 1-Ethylamino-1-(3-pyridylmethyl)amino-2-nitroethylene] yielded a mortality at 500 µg/mL of 100%.
Compound `CN(C)C(=C[N+](=O)[O-])N(C=O)Cc1ccc(Br)nc1` [Compound 128, 1-[N-(6-Bromo-3-pyridylmethyl)-N-formyl]amino-1-dimethylamino-2-nitroethylene] has a mortality at 500 µg/mL of 100%.
Compound `CCN(C)C(=C[N+](=O)[O-])NCc1ccc(Cl)nc1` [Compound 50, 1-(6-Chloro-3-pyridylmethyl)amino-1-(N-ethyl-N-methyl)amino-2-nitroethylene] has a mortality at 500 µg/mL of 100%.
For `CNC(=C[N+](=O)[O-])N(C)Cc1ccc(C)nc1` [Compound 97, 1-Methylamino-1-[N-methyl-N-(6-methyl-3-pyridyl-methyl)]amino-2-nitroethylene], the mortality at 500 µg/mL was 100%.
For `CNC(=C[N+](=O)[O-])N(C)Cc1cnc(Cl)s1` [Compound 102, 1-[N-(2-Chloro-5-thiazolylmethyl)-N-methyl]amino-1-methylamino-2-nitroethylene], the mortality at 500 µg/mL was 100%.
`NNC(=C[N+](=O)[O-])NCc1ccc(Cl)nc1` [Compound 51, 1-(6-Chloro-3-pyridylmethyl)amino-1-hydrazino-2-nitroethylene] showed a mortality at 500 µg/mL of 100%.
For `C[Si](C)(C)CNC(=C[N+](=O)[O-])NCc1cccnc1` [Compound 17, 1-(3-Pyridylmethyl)amino-1-(trimethylsilylmethyl)amino-2-nitroethylene], the mortality at 500 µg/mL was 100%.
In the case of `CCN(Cc1ccc(Cl)nc1)C(N)=C[N+](=O)[O-]` [Compound 59, 1-Amino-1-[N-(6-chloro-3-pyridylmethyl)-N-ethyl]-amino-2-nitroethylene], the mortality at 500 µg/mL is reported as 100%.

Same assay, conditions: Nilaparvata lugens, foliar, 168 h; emulsifiable concentrate diluted with water to 500 ppm, sprayed on rice seedlings (2-leaf stage), 10 ml per paper pot; 10 larvae per tube; 25° C.; dead insects counted 7 days after release; read-out: % Mortality after 7 days
`COCCNC(=C[N+](=O)[O-])N(C)Cc1cccnc1` [Compound 67, 1-(2-Methoxyethyl)amino-1-[N-methyl-N-(3-pyridylmethyl)]amino-2-nitroethylene] showed a mortality at 500 µg/mL of 100%.
In the case of `CCNC(=C[N+](=O)[O-])N(C)c1ccc(Cl)nc1` [Compound 85, 1-[N-(6-chloro-3-pyridyl)-N-methyl]amino-1-ethyl-amino-2-nitroethylene], the mortality at 500 µg/mL is reported as 100%.
In the case of `CN(C)CCNC(=C[N+](=O)[O-])NCc1cccnc1` [Compound 12, 1-(2-Dimethylaminoethyl)amino-1-(3-pyridylmethyl)amino-2-nitroethylene], the mortality at 500 µg/mL is reported as 100%.
`CNC(=C[N+](=O)[O-])NCc1ccc(Cl)cc1` [Compound 70, 1-(4-Chlorobenzyl)amino-1-methylamino-2-nitroethylene] showed a mortality at 500 µg/mL of 100%.
For `CCN(C(=C[N+](=O)[O-])NC)c1ccc(Cl)nc1` [Compound 90, 1-[N-(6-Chloro-3-pyridyl)-N-ethyl]amino-1-methyl-amino-2-nitroethylene], the mortality at 500 µg/mL was 100%.
With `CNC(=C[N+](=O)[O-])N(Cc1cccnc1)OC` [Compound 64, 1-[N-methoxy-N-(3-pyridylmethyl)]amino-1-methyl-amino-2-nitroethylene] the mortality at 500 µg/mL was 100%.
Work on `CN(Cc1cccnc1)C(=C[N+](=O)[O-])N(C)Cc1cccnc1` [Compound 57, 1,1-bis(N-methyl-N-3-pyridylmethyl)amino-2-nitroethylene] yielded a mortality at 500 µg/mL of 100%.
`CNC(=C[N+](=O)[O-])Nc1ccc(Cl)nc1` [Compound 96, 1-(6-Chloro-3-pyridyl)amino-1-methylamino-2-nitro-ethylene] gave a mortality at 500 µg/mL of 100%.
`CNC(=C[N+](=O)[O-])N(C)Cc1ccc(OC)nc1` [Compound 61, 1-[N-(6-Methoxy-3-pyridylmethyl)-N-methyl]amino-1-methylamino-2-nitroethylene] showed a mortality at 500 µg/mL of 100%.
Work on `CN(C)C(=C[N+](=O)[O-])NCc1ccc(Cl)cc1` [Compound 71, 1-(4-Chlorobenzyl)amino-1-dimethylamirxo-2-nitroethylene] yielded a mortality at 500 µg/mL of 100%.
`CN(C)C(=C[N+](=O)[O-])N(C=O)Cc1cccnc1` [Compound 72, 1-Dimethylamino-1-[N-formyl-N-(3-pyridylmethyl)]-amino-2-nitroethylene] was tested, and the mortality at 500 µg/mL was 100%.
Compound `CNC(=C[N+](=O)[O-])N(C)c1ccc(OC)nc1` [Compound 108, 1-[N-(6-Methoxy-3-pyridyl)-N-methyl]amino-1-1-methyl-amino-2-nitroethylene] has a mortality at 500 µg/mL of 100%.
In the case of `CNC(=C[N+](=O)[O-])N(C)Cc1ccncc1` [Compound 62, 1-Methylamino-1-[N-methyl-N-(4-pyridylmethyl)]-amino-2-nitroethylene], the mortality at 500 µg/mL is reported as 100%.

Same assay, conditions: emulsifiable concentrate diluted with water to 500 ppm, sprayed on rice seedlings (2-leaf stage), 10 ml per paper pot; 10 larvae per tube; 25° C.; dead insects counted 7 days after release
`CCCCNC(=C[N+](=O)[O-])N(C)Cc1cccnc1` [Compound 34, 1-n-Butylamino-1-[N-methyl-N-(3-pyridylmethyl)]amino-2-nitroethylene] was tested, and the “% Mortality after 7 days” value was 100%.
`CNC(=C[N+](=O)[O-])N(C)Cc1cccnc1` [Compound 26, 1-Methylamino-1-(N-methyl-N-3-pyridylmethyl)amino-2-nitroethylene] was tested, and the “% Mortality after 7 days” value was 100%.
For `CCCN(Cc1cccnc1)C(=C[N+](=O)[O-])NC` [Compound 42, 1-Methylamino-1-[N-(n-propyl)-N-(3-pyridylmethyl)]amino-2-nitroethylene], the “% Mortality after 7 days” value was 100%.
For `CCN(Cc1ccc(Cl)nc1)C(=C[N+](=O)[O-])NC` [Compound 60, 1-[N-(6-Chloro-3-pyridylmethyl)-N-ethyl]amino-1-methylamino-2-nitroethylene], the “% Mortality after 7 days” value was 100%.
For `CCNC(=C[N+](=O)[O-])N(C)Cc1cccnc1` [Compound 33, 1-Ethylamino-1-[N-methyl-N-(3-pyridylmethy)]amino-2-nitroethylene], the “% Mortality after 7 days” value was 100%.
`CC(C)NC(=C[N+](=O)[O-])N(C)Cc1cccnc1` [Compound 37, 1-iso-Propylamino-1-[N-methyl-N-(3-pyridylmethyl)]-amino-2-nitroethylene] was tested, and the “% Mortality after 7 days” value was 100%.
For `CNC(=C[N+](=O)[O-])N(Cc1cccnc1)CC(OC)OC` [Compound 32, 1-[N-(2-Dimethoxyethyl)-N-(3-pyridylmethyl)]amino-1-methylamino-2-nitroethylene], the “% Mortality after 7 days” value was 100%.
For `CN(Cc1cccnc1)C(N)=C[N+](=O)[O-]` [Compound 25, 1-Amino-1-(N-methyl-N-3-pyridylmethyl)amino-2-nitroethylene], the “% Mortality after 7 days” value was 100%.
